Reference: US7758851B2, “Preservative systems and their use in cosmetic preparations” (Laboratorios Miret, S.A., priority 2001, dated 2010)

Experiments:
[1] = test system: Aerobes; assay: Antimicrobial Effectiveness Testing (USP 24) of preserved cosmetic formulations, count of aerobes; assay type: cell-based; settings: for Aerobes, Initial: 0 hours
Source text: (§1) Procedure to Evaluate the Efficacv of the Preservative System
(§2) This assay consists on the contamination of the formulations to be protected with a mixed inoculum of 10^8 cfu/ml concentration, in each of the micro-organisms, and see the variation of the viable cells in time. This mixed inoculum is composed of the following micro-organisms:
(§3) The cosmetic composition which is the subject of the investigation is divided into containers with 50 g of product for each flask. Each container is inoculated with 0.5 ml of the inoculum (10^8 cfu/ml). The target concentration is 10^6 cfu/mL, approximately. All the containers are kept at a temperature between 20-25° C. and are protected against light.
(§4) The level of the microbial contamination is determined at 0 hours and after 7 days, 14 days and 28 days. The number of colonies is determined by dilution in buffer peptone with the appropriate neutraliser agent of the preservative. The culture media used for counting the micro-organisms were: Soya triptone agar (35-37° C., 48 hours) for the determination of bacteria; and Sabouraud agar with chloramphenicol for fungi and yeast (25° C., 3-5 days).
(§5) According to Antimicrobial Effectiveness Testing USP 24th Edition, 1999 (pp. 1809-1811), an antimicrobial preservative is considered to be effective in topically used products made with aqueous bases or vehicles, non-sterile nasal products and emulsions, including those applied to mucous membranes, if: • not less than 2,0 logarithm reduction from the initial calculated bacteria's count at 14 days is reached and no increase from the 14 days' count is detected after 28 days; and • no increase from the initial calculated count of yeast and moulds is observed.

[2] = test system: Fungi; assay: Antimicrobial Effectiveness Testing (USP 24) of preserved cosmetic formulations, count of fungi; assay type: cell-based, Aspergillus niger ATCC 16404; settings: for Fungi, Initial: 0 hours
Source text: as §1, §2, §3, §4, §5

[3] = test system: Yeast; assay: Antimicrobial Effectiveness Testing (USP 24) of preserved cosmetic formulations, count of yeast; assay type: cell-based, Candida albicans ATCC 10231; settings: for Yeast, Initial: 0 hours
Source text: as §1, §2, §3, §4, §5

[4] = Example 1, oil in water emulsion with non-ionic surfactant
[5] = Example 2, oil in water emulsion with ionic emulsifier
[6] = Example 3, water in oil emulsion with non-ionic emulsifier

Row | Structure (SMILES) | Aerobes, Initial [1, 4] | Aerobes, 7 days [1, 4] | Aerobes, 14 days [1, 4] | Aerobes, Initial [1, 5] | Aerobes, 7 days [1, 5] | Aerobes, 14 days [1, 5] | Aerobes, Initial [1, 6] | Aerobes, 7 days [1, 6] | Aerobes, 14 days [1, 6] | Fungi, Initial [2, 4] | Fungi, 7 days [2, 4] | Fungi, 14 days [2, 4] | Fungi, Initial [2, 5] | Fungi, 7 days [2, 5] | Fungi, 14 days [2, 5] | Fungi, Initial [2, 6] | Fungi, 7 days [2, 6] | Fungi, 14 days [2, 6] | Yeast, Initial [3, 4] | Yeast, 7 days [3, 4] | further results
1 | CCCCCCCCCCCC(=O)NC(CCCNC(=N)N)C(=O)OCC.Cl (stereo not drawn) [compound 1] | 1.1 · 10^6 | 3.1 · 10^3 | 3.3 · 10^2 | 2.7 · 10^6 | 1.6 · 10^4 | 6.5 · 10^2 | 6.2 · 10^6 | 1.8 · 10^3 | <9.9 · 10^1 | 1.7 · 10^5 | 8.9 · 10^2 | <9.9 · 10^1 | 1.4 · 10^5 | 7.2 · 10^3 | 2.8 · 10^2 | 1.0 · 10^5 | <9.9 · 10^1 | <9.9 · 10^1 | 5.6 · 10^4 | 9.5 · 10^2 | Yeast, 14 days [3, 4]: 4.0 · 10^2; Yeast, Initial [3, 5]: 3.6 · 10^4; Yeast, 7 days [3, 5]: 1.0 · 10^2; Yeast, 14 days [3, 5]: 1.0 · 10^2; Yeast, Initial [3, 6]: 7.0 · 10^4; Yeast, 7 days [3, 6]: <9.9 · 10^1; Yeast, 14 days [3, 6]: <9.9 · 10^1
2 | O=[N+]([O-])C(Br)(CO)CO [compound 2] | 1.2 · 10^6 | 2.1 · 10^3 | 7.9 · 10^2 | 4.5 · 10^6 | 2.1 · 10^4 | 3.8 · 10^3 | 3.3 · 10^6 | 5.7 · 10^3 | 2.8 · 10^3 | 1.5 · 10^5 | 1.2 · 10^3 | <9.9 · 10^1 | 1.5 · 10^5 | 8.5 · 10^3 | 1.1 · 10^2 | 3.5 · 10^4 | 8.5 · 10^3 | <9.9 · 10^1 | 3.4 · 10^4 | 1.7 · 10^2 | Yeast, 14 days [3, 4]: <9.9 · 10^1; Yeast, Initial [3, 5]: 2.9 · 10^4; Yeast, 7 days [3, 5]: 8.9 · 10^2; Yeast, 14 days [3, 5]: 4.0 · 10^2; Yeast, Initial [3, 6]: 5.9 · 10^4; Yeast, 7 days [3, 6]: 8.9 · 10^2; Yeast, 14 days [3, 6]: 4.0 · 10^2
3 | CC1(C)C(=O)N(CO)C(=O)N1CO [compound 4] | 1.5 · 10^6 | 4.7 · 10^3 | 8.5 · 10^2 | 5.2 · 10^6 | 4.7 · 10^3 | 8.7 · 10^2 | 5.6 · 10^6 | 4.7 · 10^3 | 4.3 · 10^2 | 1.6 · 10^5 | 3.2 · 10^3 | <9.9 · 10^1 | 1.4 · 10^5 | 6.2 · 10^3 | 2.7 · 10^2 | 6.4 · 10^4 | 6.2 · 10^3 | <9.9 · 10^1 | 5.6 · 10^4 | 3.1 · 10^2 | Yeast, 14 days [3, 4]: <9.9 · 10^1; Yeast, Initial [3, 5]: 1.8 · 10^4; Yeast, 7 days [3, 5]: 2.8 · 10^2; Yeast, 14 days [3, 5]: <9.9 · 10^1; Yeast, Initial [3, 6]: 4.8 · 10^4; Yeast, 7 days [3, 6]: 2.8 · 10^2; Yeast, 14 days [3, 6]: <9.9 · 10^1
4 | OCCOc1ccccc1 [compound 5] | 2.3 · 10^6 | 1.8 · 10^3 | 6.2 · 10^2 | 2.7 · 10^6 | 1.8 · 10^4 | 1.8 · 10^3 | 4.8 · 10^6 | 3.9 · 10^3 | 1.9 · 10^3 | 1.7 · 10^5 | 1.3 · 10^3 | <9.9 · 10^1 | 1.2 · 10^5 | 5.5 · 10^3 | 3.4 · 10^2 | 4.2 · 10^4 | 5.5 · 10^3 | <9.9 · 10^1 | 3.4 · 10^4 | 1.6 · 10^2 | Yeast, 14 days [3, 4]: <9.9 · 10^1; Yeast, Initial [3, 5]: 2.3 · 10^4; Yeast, 7 days [3, 5]: 5.3 · 10^2; Yeast, 14 days [3, 5]: <9.9 · 10^1; Yeast, Initial [3, 6]: 5.3 · 10^4; Yeast, 7 days [3, 6]: 5.3 · 10^2; Yeast, 14 days [3, 6]: <9.9 · 10^1
5 | ClC=CC[N+]12CN3CN(CN(C3)C1)C2.[Cl-] [compound 8] | 4.8 · 10^6 | 7.2 · 10^3 | 5.3 · 10^2 | 4.6 · 10^6 | 7.2 · 10^3 | 9.8 · 10^2 | 4.2 · 10^6 | 2.7 · 10^3 | 9.4 · 10^2 | 1.8 · 10^5 | 1.3 · 10^3 | <9.9 · 10^1 | 1.8 · 10^5 | 5.3 · 10^3 | <9.9 · 10^1 | 3.8 · 10^4 | 1.3 · 10^3 | <9.9 · 10^1 | 3.4 · 10^4 | 1.6 · 10^2 | Yeast, 14 days [3, 4]: <9.9 · 10^1; Yeast, Initial [3, 5]: 1.9 · 10^4; Yeast, 7 days [3, 5]: 5.9 · 10^2; Yeast, 14 days [3, 5]: <9.9 · 10^1; Yeast, Initial [3, 6]: 5.9 · 10^4; Yeast, 7 days [3, 6]: 5.9 · 10^2; Yeast, 14 days [3, 6]: <9.9 · 10^1
